In ChEMBL document CHEMBL1155394, “SARS-CoV 3CLpro inhibitory effects of quinone-methide triterpenes from Tripterygium regelii” (Bioorg Med Chem Lett, 2010):

Tests used:
[1] = target: T1, Replicase polyprotein 1ab (Severe acute respiratory syndrome-related coronavirus, UniProt P0C6X7); assay: Inhibition of 3C-like protease of SARS coronavirus assessed as concentration of FRET peptide for 60 mins by dixon plot
[2] = target: T1, Replicase polyprotein 1ab; assay: Inhibition of 3C-like protease of SARS coronavirus assessed as concentration of FRET peptide for 60 mins

SMILES | Ki [1] [µM] | IC50 [2] [µM]
CC1=C(O)C(=O)C=C2C1=CC=C1[C@@]2(C)CC[C@@]2(C)[C@@H]3C[C@](C)(C(=O)O)CC[C@]3(C)CC[C@]12C [CELASTROL] | 4.2 | 10.3
COc1cc(/C=C/C(=O)CC(=O)/C=C/c2ccc(O)c(OC)c2)ccc1O [CURCUMIN] |  | 23.5
Cc1c(O)c(O)cc2c1CC=C1[C@@]2(C)CC[C@@]2(C)[C@@H]3C[C@](C)(C(=O)O)CC[C@]3(C)CC[C@]12C [DIHYDROCELASTROL] |  | 21.7
COC(=O)[C@]1(C)CC[C@]2(C)CC[C@]3(C)C4=CC=C5C(=CC(=O)C(O)=C5C)[C@]4(C)CC[C@@]3(C)[C@@H]2C1 [PRISTIMERIN] | 3.1 | 5.5
CC1=C(O)C(=O)C=C2C1=CC=C1[C@@]2(C)CC[C@@]2(C)[C@@H]3C[C@@H](C)C(=O)C[C@]3(C)CC[C@]12C [TINGENONE] | 4 | 9.9
